Measured values: patent US12295936B2, “Immunomodulating urea azalides” (Zoetis Services LLC, priority 2020, dated 2025)
Where two headings read alike, the source gives them in different places.

System: BRD pathogens, M. haemolytica and P. multocida
Assay: MIC screening panel of BRD pathogens (antibacterial / non-antibacterial)
[1] = read-out: antibacterial / non-antibacterial (MIC for the BRD pathogens)

SMILES	MIC [1] [µg/mL]	MIC (read-out: MIC ≤64 μg/mL for at least one of the bacterial strains (flag * at Ex #)) [µg/mL]
CCCNC[C@]1(O)[C@H](C)O[C@@H](O[C@H]2[C@H](C)[C@@H](O[C@@H]3O[C@H](C)C[C@H](N(C)C(=O)N(C)c4ccccc4)[C@H]3O)[C@](C)(O)C[C@@H](C)CN(C)[C@H](C)[C@@H](O)[C@](C)(O)[C@@H](CC)OC(=O)[C@@H]2C)C[C@@]1(C)OC [Example H-101, 1-((2S,3R,4S,6R)-2-(((2R,3S,4R,5R,8R,10R,11R,12S,13S,14R)-2-ethyl-3,4,10-trihydroxy-13-(((2R,4R,5S,6S)-5-hydroxy-4-methoxy-4,6-dimethyl-5-((propylamino)methyl)tetrahydro-2H-pyran-2-yl)oxy)-3,5,6,8,10,12,14-heptamethyl-15-oxo-1-oxa-6-azacyclopentadecan-11-yl)oxy)-3-hydroxy-6-methyltetrahydro-2H-pyran-4-yl)-1,3-dimethyl-3-phenylurea]	> 64	–
CC[C@H]1OC(=O)[C@H](C)[C@@H](O[C@H]2C[C@@](C)(OC)[C@](O)(CNC)[C@H](C)O2)[C@H](C)[C@@H](O[C@@H]2O[C@H](C)C[C@H](N(C)C(=O)N3CCN(CC)CC3)[C@H]2O)[C@](C)(O)C[C@@H](C)CN[C@H](C)[C@@H](O)[C@]1(C)O [Example I-1, 4-ethyl-N-((2S,3R,4S,6R)-2-(((2R,3S,4R,5R,8R,10R,11R,12S,13S,14R)-2-ethyl-3,4,10-trihydroxy-13-(((2R,4R,5S,6S)-5-hydroxy-4-methoxy-4,6-dimethyl-5-((methylamino)methyl)tetrahydro-2H-pyran-2-yl)oxy)-3,5,8,10,12,14-hexamethyl-15-oxo-1-oxa-6-azacyclopentadecan-11-yl)oxy)-3-hydroxy-6-methyltetrahydro-2H-pyran-4-yl)-N-methylpiperazine-1-carboxamide]	> 64	–
CC[C@H]1OC(=O)[C@H](C)[C@@H](O[C@H]2C[C@@](C)(OC)[C@](O)(CN3CCSCC3)[C@H](C)O2)[C@H](C)[C@@H](O[C@@H]2O[C@H](C)C[C@H](N(C)C(=O)N(C)c3ccccc3)[C@H]2O)[C@](C)(O)C[C@@H](C)CN[C@H](C)[C@@H](O)[C@]1(C)O [Example J-11, 1-((2S,3R,4S,6R)-2-(((2R,3S,4R,5R,8R,10R,11R,12S,13S,14R)-2-ethyl-3,4,10-trihydroxy-13-(((2R,4R,5S,6S)-5-hydroxy-4-methoxy-4,6-dimethyl-5-(thiomorpholinomethyl)tetrahydro-2H-pyran-2-yl)oxy)-3,5,8,10,12,14-hexamethyl-15-oxo-1-oxa-6-azacyclopentadecan-11-yl)oxy)-3-hydroxy-6-methyltetrahydro-2H-pyran-4-yl)-1,3-dimethyl-3-phenylurea]	–	< 64
CC[C@H]1OC(=O)[C@H](C)[C@@H](O[C@H]2C[C@@](C)(OC)[C@](O)(CN3CCN(c4ncccn4)CC3)[C@H](C)O2)[C@H](C)[C@@H](O[C@@H]2O[C@H](C)C[C@H](N(C)C(=O)N(C)c3ccccc3)[C@H]2O)[C@](C)(O)C[C@@H](C)CN[C@H](C)[C@@H](O)[C@]1(C)O [Example J-13, 1-((2S,3R,4S,6R)-2-(((2R,3S,4R,5R,8R,10R,11R,12S,13S,14R)-2-ethyl-3,4,10-trihydroxy-13-(((2R,4R,5S,6S)-5-hydroxy-4-methoxy-4,6-dimethyl-5-((4-(pyrimidin-2-yl)piperazin-1-yl)methyl)tetrahydro-2H-pyran-2-yl)oxy)-3,5,8,10,12,14-hexamethyl-15-oxo-1-oxa-6-azacyclopentadecan-11-yl)oxy)-3-hydroxy-6-methyltetrahydro-2H-pyran-4-yl)-1,3-dimethyl-3-phenylurea]	> 64	–
CC[C@H]1OC(=O)[C@H](C)[C@@H](O[C@H]2C[C@@](C)(OC)[C@](O)(CN3CCC3)[C@H](C)O2)[C@H](C)[C@@H](O[C@@H]2O[C@H](C)C[C@H](N(C)C(=O)N(C)c3ccccc3)[C@H]2O)[C@](C)(O)C[C@@H](C)CN[C@H](C)[C@@H](O)[C@]1(C)O [Example J-22, 1-((2S,3R,4S,6R)-2-(((2R,3S,4R,5R,8R,10R,11R,12S,13S,14R)-13-(((2R,4R,5S,6S)-5-(azetidin-1-ylmethyl)-5-hydroxy-4-methoxy-4,6-dimethyltetrahydro-2H-pyran-2-yl)oxy)-2-ethyl-3,4,10-trihydroxy-3,5,8,10,12,14-hexamethyl-15-oxo-1-oxa-6-azacyclopentadecan-11-yl)oxy)-3-hydroxy-6-methyltetrahydro-2H-pyran-4-yl)-1,3-dimethyl-3-phenylurea]	> 64	–
CC[C@H]1OC(=O)[C@H](C)[C@@H](O[C@H]2C[C@@](C)(OC)[C@](O)(Cn3cccn3)[C@H](C)O2)[C@H](C)[C@@H](O[C@@H]2O[C@H](C)C[C@H](N(C)C(=O)N(C)c3ccccc3)[C@H]2O)[C@](C)(O)C[C@@H](C)CN[C@H](C)[C@@H](O)[C@]1(C)O [Example J-23, 1-((2S,3R,4S,6R)-2-(((2R,3S,4R,5R,8R,10R,11R,12S,13S,14R)-13-(((2R,4R,5S,6S)-5-((1H-pyrazol-1-yl)methyl)-5-hydroxy-4-methoxy-4,6-dimethyltetrahydro-2H-pyran-2-yl)oxy)-2-ethyl-3,4,10-trihydroxy-3,5,8,10,12,14-hexamethyl-15-oxo-1-oxa-6-azacyclopentadecan-11-yl)oxy)-3-hydroxy-6-methyltetrahydro-2H-pyran-4-yl)-1,3-dimethyl-3-phenylurea]	> 64	–
